# According to PMC11293026, “Light-activated azobenzene peptide inhibitor of the PD-1/PD-L1 interaction” (Chemical Communications (Cambridge, England), 2024):
# Entries after “also recorded” stand apart in the source; their conditions may differ. *1 amine or outer side, *2 acyl side, *3 side chain or, on linkers, in order; H or OH if unused. Where a SMILES comes first, the peptide text is derived from it. [ ]: non-standard residue; d: D form. X1 = O=C(Cc1cccc(/N=N/c2cccc(CN[*:1])c2)c1)[*:2]
# Columns and labels:
# [1] = target: T1, PD-1/PD-L1 interaction (Homo sapiens, UniProt Q9NZQ7); test: PD-1/PD-L1 HTRF binding assay (Cisbio); conditions: for IC50: HTRF, 1 h at room temperature, three parameter logistic fit, brackets = 95% confidence interval, read-out: IC50, inhibition of PD-1/PD-L1 (HTRF); for IC50 / Alanine scan of CLP003, inhibition of PD-1/PD-L1 (HTRF) at single concentration: triplicate; for Alanine scan of CLP003, inhibition of PD-1/PD-L1 (HTRF) at single concentration: peptides screened at 1 mM in europium detection buffer, representative of n = 3
# T1 construct: purchased Cisbio
# Description: All peptides were screened at 1 mM in europium detection buffer, BMS-1 (10 μM) was the control, the positive control contained tagged PD-L1 and tagged PD-1, the negative control contained tagged PD-L1 only. Errors are SEM, performed in triplicate. Representative example of n = 3. (B) Example azobenzene modified peptide, peptide 1, predicted to be unstructured in the trans isomer and a turn motif in the cis isomer. Structures predicted with RFAllAtom and Maestro. The arrows between residues in the cis conformation implies the N to C direction. (C) The analytical HPLC traces (254 nm) showing pre-irradiated (red), irradiated at 365 nm for 20 min (blue) and a co-injection of the two samples (green). (D) UV-Vis spectra of 1. […] Post irradiation, and after up to 6 hours in the dark characteristic maxima for the cis isomer at 450 nm is observed. (E) Absorbance at 330 nm over 10 cycles of photoisomerization of peptide 1 after 20 min irradiation at 365 nm, and then isomerisation for 20 min exposed to white light. […]
# 6. PD-1/PD-L1 HTRF binding assay
# This assay was purchased from CisBio and was performed following the manufacturer’s protocol. Tag1-PD-L1 and Tag2-PD-1 was diluted 40-fold from the stock solution with PPI-Europium detection buffer. Anti-Tag1 Eu Cryptate reagent and Anti-Tag2 XL665 antibody was diluted 50-fold from the stock solution with PPI-Europium detection buffer. HTRF 96-well low volume white plate was used. The samples were made to the desired concentration and 2 µL was pipetted into the well. The 4 µL of Tag-1-PD-L1 solution (25 nM) was added, followed by 4 µL of Tag2-PD-1 solution (250 nM). 1X Anti-Tag1 Eu Cryptate reagent solution (25 nM|) and 1X Anti-Tag2 XL665 antibody solution (250 nM) were pre-mixed prior to dispensing 10 µL into the well, for a total volume of 20 µL. The plate was sealed and incubated for 1 hour at room temperature. Samples were analysed in triplicate. Once incubated, the plate was read using a CLARIOstar (BMG Labtech) microplate reader following manufacturer’s protocols for time resolved fluorescence (excitation filter EX-TR, emission filters 620 (10) nm, 665 (10) nm, dichoric mirror LP-TR, integration delay (lag time) 60 µs, integration time 400 µs, number of flashes 200, gain for white plate 2500).
# The emission ratio was calculated for each well was calculated with the following equation:
# Ratio = 665 nm Intensity […]
# The “specific signal” (ΔR) is obtained by subtracting the background from the signal of each […]
# ∆R = RatioSample ‒ Ratiobackground […]
# interaction. The data was fit to a three parameter logistic regression model with resulting R2 […]
# On the day of analysis Raji-APC-nPD-L1 cell suspension ~100,000
# (90 µL) was added to a 96 well plate containing test sample (1.8 µL), followed by Jurkat-Lucia TCR-hPD-1 cell suspension of ~200,000 (90 µL). The plate was incubated at 37 °C in a CO2 incubator for 6 hours. The co-cultured supernatant was transferred to 96-well clear bottomed […]
# white plate. […]
# [2] = target: PD-L1; conditions: cited from earlier work
# From the text: To determine where to insert AMPP, alanine scanning mutagenesis highlighted which amino acids were essential for inhibition using a homogenous time-resolved fluorescence (HTRF) binding assay (Cisbio).[38] From this Tyr5 and Trp7 were highlighted as being […] for inhibition (Fig. 2A). […] Photo-switchable peptides that have the potential to be switched “on” and “off” through structural changes, present an opportunity for externally controlled immune checkpoint inhibitors.
# [3] = system: PD-1/PD-L1; conditions: read-out: IC50, PD-1/PD-L1 inhibition of BMS-1; cited from earlier work
# From the text: Photo-switchable peptides that have the potential to be switched “on” and “off” through structural changes, present an opportunity for externally controlled immune checkpoint inhibitors.
# [4] = system: PD-1/PD-L1 interaction between Jurkat-Lucia TCR-hPD-1 and Raji-APC PD-L1 cells; test: PD-1/PD-L1 immune checkpoint blockade cell-based assay (InvivoGen), luciferase read-out; parameters: species or system human; conditions: Jurkat/Raji co-culture, 6 h at 37 °C, luminescence; 1 tested as cis isomer (irradiated at 365 nm); triplicate; brackets = 95% CI
# Description: Fig. 3 (A) HTRF assay with PD-1/PD-L1 and peptides CLP003, cis1 And trans1. (B) PD-1/PD-L1 immune checkpoint blockade assay (Invivogen). Increased luminescence implies PD-1/PD-L1 inhibition between modified Jurkat and Raji cells. Errors are SEM, performed in triplicate. Representative examples of n = 3.
# There was concern that during the cellular assay incubation at 37 °C may result in the azobenzene modified peptide relaxing back to the trans isomer. To determine whether 1 was thermally stable to continue with cellular assays, 1 was incubated at 37 °C for 8 h after irradiation at 365 nm for 15 minutes in buffer. […] To explore the activity of 1 in a cellular context, an immune checkpoint blockade assay was performed. The cell-based assay (InvivoGen) consists of Jurkat T cells that are engineered to express luciferase via T cell receptor (TCR) signalling and Raji cells engineered to express PD-L1 on the cell surface. If PD-L1 is bound to PD-1, the luciferase expression is inhibited. […] As such, luciferase activity directly correlates to the PD-1/PD-L1 interaction, measured by luminescence following luciferin addition. […]
# The assay was performed following the manufacturer’s protocol. […] The plate was read using a CLARIOstar (BMG Labtech) microplate reader and used following manufacturer’s protocols, reading luminescence at a 4 s start time and 0.1 s […]
# [5] = Thermal stability of 1 at 37 °C, analytical HPLC; type: physicochemical; conditions: after irradiation at 365 nm for 15 min, 1 mg/mL in IMDM with 10% FBS, Pen-Strep and Normocin, analytical HPLC every hour
# Description: There was concern that during the cellular assay incubation at 37 °C may result in the azobenzene modified peptide relaxing back to the trans isomer. To determine whether 1 was thermally stable to continue with cellular assays, 1 was incubated at 37 °C for 8 h after irradiation at 365 nm for 15 minutes in buffer. […] To explore the activity of 1 in a cellular context, an immune checkpoint blockade assay was performed. The cell-based assay (InvivoGen) consists of Jurkat T cells that are engineered to express luciferase via T cell receptor (TCR) signalling and Raji cells engineered to express PD-L1 on the cell surface. If PD-L1 is bound to PD-1, the luciferase expression is inhibited. If the PD-1/PD-L1 interaction is inhibited, TCR signalling causes luciferase expression. As such, luciferase activity directly correlates to the PD-1/PD-L1 interaction, measured by luminescence following luciferin addition. […]
# Figure 6 a) The analytical HPLC traces of 6 reading at 214 nm top: after irradiation at 365 nm for 20 minutes showing predominantly the cis isomer (74:26) bottom: after being exposed for 20 minutes of ambient light showing predominantly the […]
# This assay was purchased from CisBio and was performed following the manufacturer’s protocol. […] Samples were analysed in triplicate. […]
# The emission ratio was calculated for each well was calculated with the following equation: […]
# T1 sequence (Q9NZQ7 19-238 limits assumed): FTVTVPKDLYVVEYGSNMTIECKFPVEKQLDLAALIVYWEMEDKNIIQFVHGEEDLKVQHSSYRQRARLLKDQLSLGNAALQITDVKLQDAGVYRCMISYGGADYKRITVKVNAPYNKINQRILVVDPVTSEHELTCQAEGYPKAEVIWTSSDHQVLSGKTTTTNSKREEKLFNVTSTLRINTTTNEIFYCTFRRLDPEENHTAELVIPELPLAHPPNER
SMILES,IC50 [1] [nM],"Alanine scan of CLP003, inhibition of PD-1/PD-L1 (HTRF) at single concentration [1]",EC50 [4] [nM],further results
CC(=O)N[C@@H](Cc1c[nH]c2ccccc12)C(=O)N[C@@H](Cc1c[nH]cn1)C(=O)N[C@@H](Cc1ccccc1)C(=O)N[C@@H](CO)C(=O)N[C@@H](Cc1ccc(O)cc1)C(=O)N[C@@H](CC(N)=O)C(=O)N[C@@H](C)C(=O)N[C@@H](CCCNC(=N)N)C(=O)N[C@@H](Cc1c[nH]c2ccccc12)C(=O)N[C@@H](CC(C)C)C(=O)N1CCC[C@H]1C(=O)N1CCC[C@H]1C(N)=O [W7A] (Ac-WHFSYNARWLPP-NH2),25,inhibiting PD-1/PD-L1,,
"CC(=O)N[C@@H](Cc1c[nH]c2ccccc12)C(=O)N[C@@H](Cc1c[nH]cn1)C(=O)N[C@@H](Cc1ccccc1)C(=O)N[C@@H](CO)C(=O)N[C@@H](Cc1ccc(O)cc1)C(=O)N[C@@H](CC(N)=O)C(=O)N[C@@H](Cc1c[nH]c2ccccc12)C(=O)N[C@@H](CCCNC(=N)N)C(=O)N[C@@H](Cc1c[nH]c2ccccc12)C(=O)N[C@@H](CC(C)C)C(=O)N1CCC[C@H]1C(=O)N1CCC[C@H]1C(N)=O [CLP003, reference compound] (Ac-WHFSYNWRWLPP-NH2)",4680,,,Kd [2]: 117 ± 80 nM
"COc1cc(OCc2cccc(-c3ccccc3)c2C)cc(OC)c1CN1CCCC[C@H]1C(=O)O [BMS-1, reference compound]",,,3990,IC50 [3]: 76 nM
CC(=O)N[C@@H](Cc1c[nH]c2ccccc12)C(=O)N[C@@H](Cc1c[nH]cn1)C(=O)N[C@@H](Cc1ccccc1)C(=O)N[C@@H](CO)C(=O)N[C@@H](Cc1ccc(O)cc1)C(=O)N[C@@H](CC(N)=O)C(=O)NCc1cccc(/N=N/c2cccc(CC(=O)N[C@@H](CCCNC(=N)N)C(=O)N[C@@H](Cc3c[nH]c4ccccc34)C(=O)N[C@@H](CC(C)C)C(=O)N3CCC[C@H]3C(=O)N3CCC[C@H]3C(N)=O)c2)c1 [compound 1] (Ac-WHFSYN[X1]RWLPP-NH2),,,5580,"Thermal stability at 37 °C over 8 h (degradation / isomer state) [5]: no degradation while remaining predominantly the cis isomer; also recorded: no observable change; Inhibition of PD-1/PD-L1 (HTRF), trans isomer ([1]; sample left in the dark (trans isomer), at up to 100 μM, detection buffer with 5% DMSO): no appreciable inhibition"
CC(=O)N[C@@H](Cc1c[nH]c2ccccc12)C(=O)N[C@@H](Cc1c[nH]cn1)C(=O)N[C@@H](Cc1ccccc1)C(=O)N[C@@H](CO)C(=O)N[C@@H](C)C(=O)N[C@@H](CC(N)=O)C(=O)N[C@@H](Cc1c[nH]c2ccccc12)C(=O)N[C@@H](CCCNC(=N)N)C(=O)N[C@@H](Cc1c[nH]c2ccccc12)C(=O)N[C@@H](CC(C)C)C(=O)N1CCC[C@H]1C(=O)N1CCC[C@H]1C(N)=O [Y5A] (Ac-WHFSANWRWLPP-NH2),52,inhibiting PD-1/PD-L1,,
